The values below come from publication PMC11245036 (bioRxiv, 2024).

For experiment [1], the target named is T1, GluA2(Q) (Rattus norvegicus, UniProt P19491). The experiment is described as follows: cryo-EM structure. Format: binding.
The target in the next experiment is GluA2(E) (Rattus norvegicus, UniProt P19491, Q607E). The experiment in a line: whole-cell patch clamp in HEK-293 cells, -60 mV. Type of experiment: cell-based.
Experiment [2] deals with T1, GluA2(Q). The experiment in a line: cryo-EM structure with glutamate and CTZ. Format: cell-based.
For a further experiment, the target named is GluA1 (Rattus norvegicus, UniProt P19490). The experiment in a line: whole-cell patch clamp in HEK-293 cells, -60 mV. Format: cell-based.
Chain of GluA1 (P19490 19-907): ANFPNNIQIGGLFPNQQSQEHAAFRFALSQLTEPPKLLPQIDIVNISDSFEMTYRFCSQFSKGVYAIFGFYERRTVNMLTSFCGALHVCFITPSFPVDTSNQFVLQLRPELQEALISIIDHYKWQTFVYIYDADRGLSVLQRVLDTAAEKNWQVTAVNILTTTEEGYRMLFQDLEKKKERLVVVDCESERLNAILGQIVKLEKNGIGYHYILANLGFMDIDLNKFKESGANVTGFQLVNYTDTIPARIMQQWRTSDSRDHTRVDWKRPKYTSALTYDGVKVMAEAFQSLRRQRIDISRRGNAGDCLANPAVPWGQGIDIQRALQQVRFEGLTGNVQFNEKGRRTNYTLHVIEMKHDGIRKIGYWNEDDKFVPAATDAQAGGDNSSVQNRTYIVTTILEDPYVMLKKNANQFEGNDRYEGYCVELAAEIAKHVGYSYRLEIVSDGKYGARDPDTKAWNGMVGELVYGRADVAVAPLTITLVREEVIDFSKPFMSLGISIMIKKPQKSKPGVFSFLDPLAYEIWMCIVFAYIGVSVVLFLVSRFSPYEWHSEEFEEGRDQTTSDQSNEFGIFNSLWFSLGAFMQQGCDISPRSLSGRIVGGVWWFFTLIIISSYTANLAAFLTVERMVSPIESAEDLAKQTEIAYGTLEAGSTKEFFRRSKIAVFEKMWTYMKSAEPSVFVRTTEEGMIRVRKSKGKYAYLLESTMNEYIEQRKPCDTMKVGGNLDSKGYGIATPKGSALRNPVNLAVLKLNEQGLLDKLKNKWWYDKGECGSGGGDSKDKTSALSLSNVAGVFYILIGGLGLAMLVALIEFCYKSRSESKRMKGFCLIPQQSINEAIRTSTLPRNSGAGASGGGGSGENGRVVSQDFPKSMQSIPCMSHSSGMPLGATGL
The target in experiment [3] is GluA2(Q) subunit, as part of the fusion construct GluA2-γ2EM (rat) (UniProt P19491). The experiment in a line: cryo-EM structure.

Consider `NS(=O)(=O)c1cc2c(cc1Cl)NC(C1CC3C=CC1C3)NS2(=O)=O` (centres unmarked) [CTZ], for which, on GluA2(Q) [1], the “cryo-EM structure (GluA2-γ2mem), 100 μM CTZ” value is “Glutamate (yellow), CTZ (purple), and memantine (cyan) are shown as space filling models”.

Regarding `CC12CC3CC(C)(C1)CC(N)(C3)C2` [memantine], the half-maximal inhibitory concentration (IC50) against GluA2(E) is 25 ± 2 µM; at GluA2(Q) [2], 49 ± 2 µM; on GluA1, 10 ± 2 µM.

In experiment [3], “GluA2(Q) subunit, as part of the fusion construct GluA2-γ2EM (from UniProt P19491-2 22-883) (receptor)” gave a stoichiometry N of 4.
